# Values joined by “and” are separate entries in the source; they are usually repeats but may differ in a detail not shown here. Equal values may be shown once. Toxic doses and inconclusive results are not listed.
# System: BDF1 mice, P388 leukemia ip, median survival T/C
# Assay: NCI In Vivo Anticancer Drug Screen. Data for tumor model P388 Leukemia (intraperitoneal) in B6D2F1 (BDF1) mice
# Conditions: endpoint: median survival time, higher = longer survival
# Method in brief: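 Mice carrying the transplantable tumour receive compound or vehicle. Survival is followed in each arm, and the treated measure is divided by the vehicle measure.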
# [1] = dose: 6.25 mg/kg/injection, schedule: Q04DX003 (ip), vehicle: saline
# [2] = dose: 12.5 mg/kg/injection, schedule: Q04DX003 (ip), vehicle: saline
# [3] = dose: 100.0 mg/kg/injection, schedule: Q04DX003 (ip), vehicle: saline with Tween-80
# [4] = dose: 50.0 mg/kg/injection, schedule: Q01DX009 (ip), vehicle: saline with Tween-80
# [5] = dose: 50.0 mg/kg/injection, schedule: Q04DX003 (ip), vehicle: saline with Tween-80
# [6] = dose: 200.0 mg/kg/injection, schedule: Q04DX003 (ip), vehicle: saline with Tween-80
# [7] = dose: 400.0 mg/kg/injection, schedule: Q04DX003 (ip), vehicle: saline with Tween-80
# [8] = dose: 100.0 mg/kg/injection, schedule: Q01DX009 (ip), vehicle: saline with Tween-80
# [9] = dose: 200.0 mg/kg/injection, schedule: Q01DX009 (ip), vehicle: saline with Tween-80
smiles,measurement,setting,value
CC1CCC(NC(=O)N(CCCl)N=O)CC1 (stereo not given),T/C,"dose: 0.66 mg/kg/injection, schedule: Q01DX009 (ip), vehicle: Klucel (hydroxypropylcellulose) (HPC)",97 % of control
same,T/C,"dose: 0.99 mg/kg/injection, schedule: Q01DX009 (ip), vehicle: Klucel (hydroxypropylcellulose) (HPC)",107 % of control
same,T/C,"dose: 1.5 mg/kg/injection, schedule: Q01DX009 (ip), vehicle: Klucel (hydroxypropylcellulose) (HPC)",177 % of control
same,T/C,"dose: 3.1 mg/kg/injection, schedule: Q04DX003 (ip), vehicle: Klucel (hydroxypropylcellulose) (HPC)",154 % of control
same,T/C,"dose: 3.6 mg/kg/injection, schedule: Q01DX009 (ip), vehicle: Klucel (hydroxypropylcellulose) (HPC)",180 % of control
same,T/C,"dose: 4.7 mg/kg/injection, schedule: Q04DX003 (ip), vehicle: Klucel (hydroxypropylcellulose) (HPC)",172 % of control
same,T/C,"dose: 5.0 mg/kg/injection, schedule: Q04DX002 (ip), vehicle: other",168 % of control
same,T/C,"dose: 7.2 mg/kg/injection, schedule: Q04DX003 (ip), vehicle: saline",190 % of control
same,T/C,"dose: 8.3 mg/kg/injection, schedule: Q01DX009 (ip), vehicle: Klucel (hydroxypropylcellulose) (HPC)",250 % of control
same,T/C,"dose: 9.4 mg/kg/injection, schedule: Q04DX003 (ip), vehicle: saline with Tween-80",113 % of control
same,T/C,"dose: 10.0 mg/kg/injection, schedule: Q01DX001 (ip), vehicle: alcohol",119 % of control
same,T/C,"dose: 10.0 mg/kg/injection, schedule: Q04DX002 (ip), vehicle: other",194 % of control
same,T/C,"dose: 10.0 mg/kg/injection, schedule: Q04DX003 (ip), vehicle: saline with Tween-80",209 % of control
same,T/C,"dose: 10.0 mg/kg/injection, schedule: Q04DX003 (ip), vehicle: saline",225 % of control
same,T/C,"dose: 11.0 mg/kg/injection, schedule: Q04DX003 (ip), vehicle: saline with Tween-80",272 % of control
same,T/C,"dose: 12.5 mg/kg/injection, schedule: Q01DX009 (ip), vehicle: Klucel (hydroxypropylcellulose) (HPC)",300 % of control and 120 % of control
same,T/C,"dose: 15.0 mg/kg/injection, schedule: Q04DX003 (ip), vehicle: saline with Tween-80",241 % of control and 322 % of control and 212 % of control
same,T/C,"dose: 16.0 mg/kg/injection, schedule: Q01DX001 (ip), vehicle: saline with Tween-80",322 % of control
same,T/C,"dose: 16.0 mg/kg/injection, schedule: Q04DX003 (ip), vehicle: saline with Tween-80",545 % of control
same,T/C,"dose: 16.5 mg/kg/injection, schedule: Q04DX003 (ip), vehicle: saline",272 % of control
same,T/C,"dose: 18.0 mg/kg/injection, schedule: Q01DX009 (ip), vehicle: Klucel (hydroxypropylcellulose) (HPC)",110 % of control
same,T/C,"dose: 18.75 mg/kg/injection, schedule: Q01DX009 (ip), vehicle: Klucel (hydroxypropylcellulose) (HPC)",100 % of control
same,T/C,"dose: 20.0 mg/kg/injection, schedule: Q04DX002 (ip), vehicle: other",247 % of control
same,T/C,"dose: 20.0 mg/kg/injection, schedule: Q04DX003 (ip), vehicle: saline with Tween-80",258 % of control and 294 % of control and 482 % of control
same,T/C,"dose: 24.0 mg/kg/injection, schedule: Q04DX003 (ip), vehicle: saline with Tween-80",545 % of control
same,T/C,"dose: 25.0 mg/kg/injection, schedule: Q01DX009 (ip), vehicle: Klucel (hydroxypropylcellulose) (HPC)",115 % of control
same,T/C,"dose: 25.0 mg/kg/injection, schedule: Q04DX003 (ip), vehicle: alcohol",300 % of control
same,T/C,"dose: 25.0 mg/kg/injection, schedule: Q04DX003 (ip), vehicle: saline",240 % of control and 272 % of control
same,T/C,"dose: 30.0 mg/kg/injection, schedule: Q04DX003 (ip), vehicle: saline with Tween-80",446 % of control
same,T/C,"dose: 37.5 mg/kg/injection, schedule: Q04DX003 (ip), vehicle: saline",90 % of control and 218 % of control
same,T/C,"dose: 40.0 mg/kg/injection, schedule: Q04DX002 (ip), vehicle: other",117 % of control
same,T/C,"dose: 50.0 mg/kg/injection, schedule: Q04DX003 (ip), vehicle: alcohol",115 % of control
same,T/C,"dose: 54.0 mg/kg/injection, schedule: Q01DX001 (ip), vehicle: saline with Tween-80",499 % of control
CC1(C)C(O)(C#N)C(C)(C)C1(O)C#N (stereo not given),T/C,"dose: 3.13 mg/kg/injection, schedule: Q04DX003 (ip), vehicle: saline",100 % of control
same,T/C,[1],109 % of control
same,T/C,[2],95 % of control
CCOP(=S)(N1CC1C)N1CC1C (stereo not given),T/C,"dose: 66.0 mg/kg/injection, schedule: Q04DX003 (ip), vehicle: saline with Tween-80",116 % of control
same,T/C,"dose: 100.0 mg/kg/injection, schedule: Q01DX007 (ip), vehicle: saline with Tween-80",163 % of control
same,T/C,[3],112 % of control
same,T/C,"dose: 150.0 mg/kg/injection, schedule: Q01DX007 (ip), vehicle: saline with Tween-80",159 % of control
same,T/C,"dose: 150.0 mg/kg/injection, schedule: Q04DX003 (ip), vehicle: saline with Tween-80",120 % of control
O=C(O)C1C2C=CC(C3C=CC32)C1C(=O)O (stereo not given),T/C,"dose: 25.0 mg/kg/injection, schedule: Q01DX009 (ip), vehicle: saline",97 % of control
same,T/C,"dose: 50.0 mg/kg/injection, schedule: Q01DX009 (ip), vehicle: saline",93 % of control
same,T/C,"dose: 100.0 mg/kg/injection, schedule: Q01DX009 (ip), vehicle: saline",97 % of control
same,T/C,"dose: 200.0 mg/kg/injection, schedule: Q01DX009 (ip), vehicle: saline",96 % of control
same,T/C,"dose: 400.0 mg/kg/injection, schedule: Q01DX009 (ip), vehicle: saline",102 % of control
CC1=CCC(CC(N)=O)C1(C)C (stereo not given),T/C,"dose: 100.0 mg/kg/injection, schedule: Q01DX001 (ip), vehicle: saline with Tween-80",105 % of control
same,T/C,"dose: 200.0 mg/kg/injection, schedule: Q01DX001 (ip), vehicle: saline with Tween-80",103 % of control
same,T/C,"dose: 400.0 mg/kg/injection, schedule: Q01DX001 (ip), vehicle: saline with Tween-80",92 % of control
c1ccc(C2OC3(CCCCC3)C[N+]23CCCC3)cc1 (stereo not given),T/C,"dose: 25.0 mg/kg/injection, schedule: Q01DX009 (ip), vehicle: saline with Tween-80",95 % of control
same,T/C,[4],113 % of control
same,T/C,[5],100 % of control
same,T/C,[3],87 % of control
C=CC=O,T/C,"dose: 0.45 mg/kg/injection, schedule: Q01DX009 (ip), vehicle: saline",100 % of control
same,T/C,"dose: 0.45 mg/kg/injection, schedule: Q04DX003 (ip), vehicle: saline",109 % of control
same,T/C,"dose: 0.9 mg/kg/injection, schedule: Q01DX009 (ip), vehicle: saline",108 % of control
same,T/C,"dose: 0.9 mg/kg/injection, schedule: Q04DX003 (ip), vehicle: saline",100 % of control
same,T/C,"dose: 1.8 mg/kg/injection, schedule: Q01DX009 (ip), vehicle: saline",112 % of control
same,T/C,"dose: 1.8 mg/kg/injection, schedule: Q04DX003 (ip), vehicle: saline",109 % of control
same,T/C,"dose: 6.25 mg/kg/injection, schedule: Q01DX009 (ip), vehicle: saline",109 % of control
same,T/C,[1],104 % of control
same,T/C,[2],100 % of control
Cc1c2oc3c(C)ccc(C(=O)NCCc4ccco4)c3nc-2c(C(=O)NCCc2ccco2)c(N)c1=O,T/C,[3],102 % of control
same,T/C,[6],99 % of control
same,T/C,[7],96 % of control
Nc1nccnc1N,T/C,[4],110 % of control
same,T/C,[5],95 % of control
same,T/C,[8],115 % of control
same,T/C,[3],100 % of control
same,T/C,[9],120 % of control
same,T/C,[6],87 % of control
Nc1[nH]nc2nccnc12,T/C,[8],108 % of control
same,T/C,[3],100 % of control
same,T/C,[9],100 % of control
same,T/C,[6],104 % of control
same,T/C,"dose: 400.0 mg/kg/injection, schedule: Q01DX009 (ip), vehicle: saline with Tween-80",100 % of control
same,T/C,[7],109 % of control
O=C(OCCBr)c1ccccc1[N+](=O)[O-],T/C,"dose: 100.0 mg/kg/injection, schedule: Q04DX003 (ip), vehicle: saline",100 % of control
same,T/C,"dose: 200.0 mg/kg/injection, schedule: Q04DX003 (ip), vehicle: saline",104 % of control
same,T/C,"dose: 400.0 mg/kg/injection, schedule: Q04DX003 (ip), vehicle: saline",109 % of control
